Where two headings read alike, the source gives them in different places. Ends that are not written are not given here. Peptide text beside a SMILES is read from it.

The values that follow come from PMC8729770, “In Vitro Evaluation of Antimicrobial Peptides from the Black Soldier Fly (Hermetia Illucens) against a Selection of Human Pathogens” (Microbiology Spectrum, 2022).

A short description of data set [1]: Cytotoxicity screening of the peptide library. The data set is classed as cell-based, human. The settings on record: human; both repeats; read-out: IC50 cell toxicity MRC5-SV2. The procedure: (§1) To determine early signs of peptide toxicity, the library was tested against the MRC5-SV2 cell line of human, embryonic lung fibroblasts (Sigma-Aldrich). Peptides were serially diluted in 96-well plates as described earlier at concentrations ranging from 64 μM to 0.25 μM for the first screening, and from 32 μM to 0.016 μM for the independent repeat. Tamoxifen (Sigma-Aldrich) was included as a reference compound. After preparation of the test plates, cell suspension (190 μL) of 1.5 × 10^5 cells/mL in complete minimum essential medium (Gibco) was added to the peptides. Plates were incubated for 72 h at 37°C in a 5% CO2 incubator (Binder). Afterwards, 50 μL of a 0.01% (wt/vol) resazurin (Sigma-Aldrich) solution was added to the wells to detect cell viability.

For the next data set, the system named is S. aureus ATCC 6538. The format is cell-based, Staphylococcus aureus. The settings on record: 16 h; for MIC S. aureus ATCC 6538: determined visually; for IC50: MHB, 37°C, resazurin, 50% growth inhibition. Here is the method:
(§2) To detect antimicrobial activity of the BSF AMPs, the peptide library underwent screening against a panel of microorganisms, consisting of S. aureus ATCC 6538, E. coli ATCC 8739, P. aeruginosa ATCC 9027, C. albicans B59630, and A. fumigatus B42928. Serial dilutions of the peptides were prepared from the DMSO stock solutions in sterile demineralized water in 96-well plates using an automated liquid-handling workstation (Beckman Coulter Biomek 3000) in end volumes of 10 μL. The final in-plate concentration of DMSO was <1%. Peptide concentrations ranged from 64 μM to 0.25 μM for the first evaluation, and from 32 μM to 0.016 μM for the independent repeat. As references, doxycycline (Sigma-Aldrich; S. aureus, E. coli, P. aeruginosa), flucytosine (Sigma-Aldrich; C. albicans), and econazole (Sigma-Aldrich; A. fumigatus) were used. Suspensions of a starting inoculum of 5 × 10^3 CFU/mL (E. coli, S. aureus, C. albicans, A. fumigatus) and 5 × 10^4 CFU/mL (P. aeruginosa) were prepared in MHB (bacterial species) or RPMI medium (fungal species) and 190 μL was added to the 96-well plates. Plates were incubated for 16 h (E. coli, S. aureus, P. aeruginosa), 24 h (C. albicans), or 48 h (A. fumigatus) at 37°C. After incubation, read-out of the antimicrobial activity was performed using a resazurin assay. Then, 20 μL of a 0.01% (wt/vol) resazurin (Sigma-Aldrich) solution was added to each well and plates were incubated for 15 min (S. aureus), 30 min (E. coli), 45 min (P. aeruginosa), 4 h (C. albicans), or 17 h (A. fumigatus) to allow resazurin reduction to take place. Fluorescence was read using a microplate reader (Telix) at λexcitation = 550 nm and λemission = 590. […] MIC values were determined visually. Medium in the wells with no visual growth was plated on MHA to detect the MBC, defined as ≥3 log reduction compared with the growth control.

Data set [2] concerns E. coli ATCC 8739. The format is cell-based, Escherichia coli. The settings on record: for IC50: MHB, 37°C, resazurin. The procedure: as §2
For another data set, the system named is P. aeruginosa ATCC 9027. The data set is classed as cell-based, Pseudomonas aeruginosa. The settings on record: 16 h; for MIC P. aeruginosa ATCC 9027: determined visually; for IC50: MHB, 37°C, resazurin. Here is the method:
as §2

In data set [3] the test system is E. coli ATCC 8739. The settings on record: ATCC 8739, 16 h.
The subject of a further data set is P. aeruginosa ATCC 15442. The settings on record: ATCC 15442, 16 h.
Another data set deals with K. pneumoniae ATCC 13883. The settings on record: ATCC 13883, 16 h.
For a further data set, the system named is B. cenocepacia LMG 16656. The settings on record: for IC50: read-out: IC50 B. cenocepacia LMG 16656, starting at 32 μM, 10^5 CFU/mL, 48 h, 37°C, resazurin; for MIC B. cenocepacia LMG 16656: visual.
In data set [4] the test system is M. tuberculosis ATCC 25177 (H37Ra). The settings on record: for IC50: read-out: IC50 M. tuberculosis ATCC 25177 (H37Ra), starting at 32 μM, 5×10^5 CFU/mL, 7 days, 37°C, resazurin; for MIC M. tuberculosis ATCC 25177 (H37Ra): visual.
Data set [5] has as its system MRC5-SV2 cell line of human, embryonic lung fibroblasts. The data set is described as follows: Cytotoxicity screening of the peptide library. The settings on record: 72 h, 37°C, resazurin fluorescence. The data set is classed as cell-based. The procedure:
as §1

The subject of another data set is C. albicans B59630. The format is cell-based, Candida albicans. The settings on record: RPMI, 24 h, 37°C, resazurin. The procedure:
as §2

The next data set deals with A. fumigatus B42928. The format is cell-based, Aspergillus fumigatus. The settings on record: RPMI, 48 h, 37°C, resazurin. Here is the method:
as §2

Data set [6] relates to preformed P. aeruginosa ATCC 15442 biofilm. The data set is described as follows: Biofilm eradication (postexposure). The data set is classed as cell-based, Pseudomonas aeruginosa. The settings on record: at 64 μM and 128 μM; resazurin. The procedure:
After 16 h of incubation at 37°C and shaking at 110 rpm (New Brunswick Innova 4300), a resazurin assay was used as described by Gilbert-Girard et al. to determine the viability of the bacterial cells in the biofilm ([79]). After incubation, the growth medium was removed from the well plates and the bacterial biofilms were washed once with PBS to remove remaining planktonic cells. […] The fluorescence of the wells was measured at λexcitation = 550 nm and λemission = 590 using a microplate reader (Promega). Afterwards, a crystal violet staining was applied to determine the biomass of the biofilms ([79]). The resazurin solution was removed from the well plates and 200 μL of 100% ethanol (VWR Chemicals) was added to fix the biofilms. After 15 min of incubation, the ethanol was discarded from the wells and the plates were left to air dry for 30 min. […] The staining solution was removed after 5 min and the biofilms were washed with PBS. After air-drying for 10 min, the crystal violet stain was solubilized in 200 μL of 100% ethanol. […] The experiment was carried out three times. Polymyxin B sulfate (Sigma-Aldrich) was included as a reference. […] The next day, bacterial viability and biomass were determined with a resazurin assay and crystal violet assay as described earlier. […]

Where [7] appears, read: repeat 1, 64-0.25 μM, determined visually, 16 h.
Setting [8] is: repeat 2, 32-0.016 μM, determined visually, 16 h.

`CC[C@H](C)[C@H](N)C(=O)N[C@@H](CCCCN)C(=O)N[C@@H](CS)C(=O)N[C@H](C(=O)N1CCC[C@H]1C(=O)N[C@@H](CO)C(=O)N[C@@H](CCC(N)=O)C(=O)N[C@@H](CS)C(=O)N[C@@H](CC(N)=O)C(=O)N[C@@H](CCC(N)=O)C(=O)N[C@H](C(=O)N[C@@H](CS)C(=O)N[C@@H](CCCNC(=N)N)C(=O)N[C@H](C(=O)N[C@@H](CC(C)C)C(=O)NCC(=O)N[C@@H](CCCCN)C(=O)N[C@@H](CCCCN)C(=O)N[C@@H](CS)C(=O)NCC(=O)N[C@@H](Cc1ccc(O)cc1)C(=O)N[C@@H](CS)C(=O)N[C@@H](CCCCN)C(=O)N[C@@H](CC(N)=O)C(=O)N[C@@H](C)C(=O)N[C@@H](CO)C(=O)N[C@H](C(=O)N[C@@H](CS)C(=O)N[C@H](C(=O)N[C@@H](CS)C(=O)N[C@@H](CC(C)C)C(N)=O)C(C)C)[C@@H](C)O)C(C)C)[C@@H](C)CC)C(C)C` [Hill-Knot2] (H-IKCVPSQCNQICRVLGKKCGYCKNASTCVCL-NH2; N-terminus assumed): the IC50 in data set [1] is less than 32 µM.
“FNNLPICVEGLAGDIGSILLGVESDIGALAGAIANLALIAGECAAQGEAGAAICA-NH2 (cysteines drawn unpaired) [Hill-Stom1]”: the IC50 in [1] was less than 32 µM. Moreover, the “MIC S. aureus ATCC 6538” value in the data set with S. aureus ATCC 6538 (repeat 1, 64-0.25 μM) is greater than 64.00 µM; in the data set on S. aureus ATCC 6538 (repeat 2, 32-0.016 μM), greater than 32.00 µM. Besides, the “MIC E. coli ATCC 8739” value against E. coli ATCC 8739 [2] (setting [7]) is greater than 32.00 µM; against E. coli ATCC 8739 [2] (setting [8]), greater than 64.00 µM. The “MIC P. aeruginosa ATCC 9027” value against P. aeruginosa ATCC 9027 (repeat 1, 64-0.25 μM) is greater than 32.00 µM; in the data set with P. aeruginosa ATCC 9027 (repeat 2, 32-0.016 μM), greater than 64.00 µM.
For the compound “SWWKKVFKPVEKLGQRVRDATIQGIGIAQQGANVLATVRGGPPQ-NH2 [Hill-Cec1]”, the “MIC E. coli ATCC 8739” value in the data set with E. coli ATCC 8739 [2] (ATCC 8739, 16 h) was 0.25 µM. For the same compound, the IC50 with E. coli ATCC 8739 [3] was 0.15 µM; in the data set on B. cenocepacia LMG 16656 (repeat 1), greater than 32 µM; with B. cenocepacia LMG 16656 (repeat 2) it was greater than 32 µM; in data set [4] (repeat 1), greater than 32 µM; in data set [4] (repeat 2), greater than 32 µM. Moreover, in the data set with P. aeruginosa ATCC 15442, the “MIC P. aeruginosa ATCC 15442” value was determined as 1 µM. In the data set with K. pneumoniae ATCC 13883, the “MIC K. pneumoniae” value lay within 0.25 to 0.5 µM. Further, the “MIC B. cenocepacia LMG 16656” value in the data set on B. cenocepacia LMG 16656 (repeat 1) and with B. cenocepacia LMG 16656 (repeat 2) was greater than 32 µM in each case. Further, the “MIC M. tuberculosis ATCC 25177 (H37Ra)” value in data set [4] (repeat 1) and in data set [4] (repeat 2) was greater than 32 µM in each case.
Consider “VTCDLLEPFLGPAPCMIHCIVRFRKRTGYCNSQNVCVCR [Hill-Def1, Defensin without disulfide bridges, C-terminal amidation]”, for which the IC50 is greater than 64 µM in data set [5] (repeat 1, first screening 64-0.25 μM); greater than 32 µM in data set [5] (repeat 2, independent repeat 32-0.016 μM); greater than 64 µM in the data set on S. aureus ATCC 6538 (repeat 1, 64-0.25 μM); greater than 32 µM in the data set on S. aureus ATCC 6538 (repeat 2, 32-0.016 μM); greater than 64 µM with E. coli ATCC 8739 [2] (repeat 1, 64-0.25 μM, 16 h); greater than 32 µM in the data set on E. coli ATCC 8739 [2] (repeat 2, 32-0.016 μM, 16 h). The IC50 is greater than 64 µM in the data set with P. aeruginosa ATCC 9027 (repeat 1, 64-0.25 μM); greater than 32 µM in the data set on P. aeruginosa ATCC 9027 (repeat 2, 32-0.016 μM); greater than 64 µM in the data set on C. albicans B59630 (repeat 1, 64-0.25 μM); greater than 32 µM in the data set with C. albicans B59630 (repeat 2, 32-0.016 μM); greater than 64 µM in the data set on A. fumigatus B42928 (repeat 1, 64-0.25 μM); greater than 32 µM in the data set on A. fumigatus B42928 (repeat 2, 32-0.016 μM). For the same compound, the “MIC S. aureus ATCC 6538” value was greater than 64.00 µM against S. aureus ATCC 6538 (repeat 1, 64-0.25 μM) and greater than 32.00 µM in the data set with S. aureus ATCC 6538 (repeat 2, 32-0.016 μM). Besides, the “MIC E. coli ATCC 8739” value was greater than 64.00 µM against E. coli ATCC 8739 [2] (setting [7]) and greater than 32.00 µM in the data set with E. coli ATCC 8739 [2] (setting [8]). Also, the “MIC P. aeruginosa ATCC 9027” value in the data set on P. aeruginosa ATCC 9027 (repeat 1, 64-0.25 μM) is greater than 64.00 µM; in the data set on P. aeruginosa ATCC 9027 (repeat 2, 32-0.016 μM), greater than 32.00 µM.
Consider polymyxin B [reference compound], for which the “reduction in viability of preformed biofilm” value in [6] is reported as “over 70%”.
